According to US20210387978A1, “CYCLOBUTYL DIHYDROQUINOLINE SULFONAMIDE COMPOUNDS” (AMGEN INC., priority 2020, published 2021):

Target: T1, Human Nav1.7 (Homo sapiens, UniProt Q15858)
T1 construct: expressed in transfected cells; host or cells: Spiking HEK cells (without Kir2.1 transfection)
Test: IonWorks Barracuda (IWB) automated patch clamp assay
Format: cell-based
Conditions: human Nav1.7 currents, HEK cells, population patch-clamp, state- and use-dependent voltage protocol; read-out: hNaV1.7 IWB-U IC50
Description: Ionaworks Barracuda […] Automated Patch Clamp Assay (Same Protocol for Both Human and Mouse)
Human Nav1.7 currents were recorded in population patch-clamp mode with the IWB automated electrophysiology system (Molecular Devices, LLC, Sunnyvale, Calif.). Spiking HEK cells (without Kir2.1 transfection) were cultured and prepared for recordings as previously described for IonWorks Quattro testing^1. The external solution consisted of the following (in mM): NaCl 140, KCl 5, CaCl2 2, MgCl2 1, HEPES 10, and glucose 11, pH 7.4, with N-methyl-D-glucamine at 320 mOsmol. […] From a holding potential of −110 mV, currents were elicited by a train of 26 depolarizations of 150 ms duration to −20 mV at a frequency of 5 Hz. Cells were then clamped to −20 mV for a period of 4 minutes in the presence of a single concentration of test compound. Following this compound incubation period, cells were clamped to −110 mV for three seconds to recover unbound channels and put through the same 26 pulse voltage protocol as above. Peak inward current during the 26th pulse to −20 mV in the presence of compound was divided by the peak inward current evoked by the 26th pulse to −20 mV in the absence of compound to determine percent inhibition. Concentration-response curves of percent inhibition as a function of concentration were generated to calculate IC50 values as described in Kornecook, T. J.; Yin, R.; Altmann, S.; et al. Pharmacologic Characterization of AMG8379, a Potent and Selective Small Molecule Sulfonamide Antagonist of the Voltage-Gated Sodium Channel NaV1. 7.
The potency of the compounds of the present invention were evaluated on human Nav1.7 channels using the above described IonWorks Barracuda automated electrophysiology platform that evaluates the ability of compounds to block sodium conductance through Nav1.7 channels. A voltage-protocol that prosecutes both state-dependent as well as use-dependent inhibition was used as these modes of action are thought to be more relevant for the native state of Nav1.7 channels in pain sensing neurons in vivo.

T1 sequence (Q15858 whole entry): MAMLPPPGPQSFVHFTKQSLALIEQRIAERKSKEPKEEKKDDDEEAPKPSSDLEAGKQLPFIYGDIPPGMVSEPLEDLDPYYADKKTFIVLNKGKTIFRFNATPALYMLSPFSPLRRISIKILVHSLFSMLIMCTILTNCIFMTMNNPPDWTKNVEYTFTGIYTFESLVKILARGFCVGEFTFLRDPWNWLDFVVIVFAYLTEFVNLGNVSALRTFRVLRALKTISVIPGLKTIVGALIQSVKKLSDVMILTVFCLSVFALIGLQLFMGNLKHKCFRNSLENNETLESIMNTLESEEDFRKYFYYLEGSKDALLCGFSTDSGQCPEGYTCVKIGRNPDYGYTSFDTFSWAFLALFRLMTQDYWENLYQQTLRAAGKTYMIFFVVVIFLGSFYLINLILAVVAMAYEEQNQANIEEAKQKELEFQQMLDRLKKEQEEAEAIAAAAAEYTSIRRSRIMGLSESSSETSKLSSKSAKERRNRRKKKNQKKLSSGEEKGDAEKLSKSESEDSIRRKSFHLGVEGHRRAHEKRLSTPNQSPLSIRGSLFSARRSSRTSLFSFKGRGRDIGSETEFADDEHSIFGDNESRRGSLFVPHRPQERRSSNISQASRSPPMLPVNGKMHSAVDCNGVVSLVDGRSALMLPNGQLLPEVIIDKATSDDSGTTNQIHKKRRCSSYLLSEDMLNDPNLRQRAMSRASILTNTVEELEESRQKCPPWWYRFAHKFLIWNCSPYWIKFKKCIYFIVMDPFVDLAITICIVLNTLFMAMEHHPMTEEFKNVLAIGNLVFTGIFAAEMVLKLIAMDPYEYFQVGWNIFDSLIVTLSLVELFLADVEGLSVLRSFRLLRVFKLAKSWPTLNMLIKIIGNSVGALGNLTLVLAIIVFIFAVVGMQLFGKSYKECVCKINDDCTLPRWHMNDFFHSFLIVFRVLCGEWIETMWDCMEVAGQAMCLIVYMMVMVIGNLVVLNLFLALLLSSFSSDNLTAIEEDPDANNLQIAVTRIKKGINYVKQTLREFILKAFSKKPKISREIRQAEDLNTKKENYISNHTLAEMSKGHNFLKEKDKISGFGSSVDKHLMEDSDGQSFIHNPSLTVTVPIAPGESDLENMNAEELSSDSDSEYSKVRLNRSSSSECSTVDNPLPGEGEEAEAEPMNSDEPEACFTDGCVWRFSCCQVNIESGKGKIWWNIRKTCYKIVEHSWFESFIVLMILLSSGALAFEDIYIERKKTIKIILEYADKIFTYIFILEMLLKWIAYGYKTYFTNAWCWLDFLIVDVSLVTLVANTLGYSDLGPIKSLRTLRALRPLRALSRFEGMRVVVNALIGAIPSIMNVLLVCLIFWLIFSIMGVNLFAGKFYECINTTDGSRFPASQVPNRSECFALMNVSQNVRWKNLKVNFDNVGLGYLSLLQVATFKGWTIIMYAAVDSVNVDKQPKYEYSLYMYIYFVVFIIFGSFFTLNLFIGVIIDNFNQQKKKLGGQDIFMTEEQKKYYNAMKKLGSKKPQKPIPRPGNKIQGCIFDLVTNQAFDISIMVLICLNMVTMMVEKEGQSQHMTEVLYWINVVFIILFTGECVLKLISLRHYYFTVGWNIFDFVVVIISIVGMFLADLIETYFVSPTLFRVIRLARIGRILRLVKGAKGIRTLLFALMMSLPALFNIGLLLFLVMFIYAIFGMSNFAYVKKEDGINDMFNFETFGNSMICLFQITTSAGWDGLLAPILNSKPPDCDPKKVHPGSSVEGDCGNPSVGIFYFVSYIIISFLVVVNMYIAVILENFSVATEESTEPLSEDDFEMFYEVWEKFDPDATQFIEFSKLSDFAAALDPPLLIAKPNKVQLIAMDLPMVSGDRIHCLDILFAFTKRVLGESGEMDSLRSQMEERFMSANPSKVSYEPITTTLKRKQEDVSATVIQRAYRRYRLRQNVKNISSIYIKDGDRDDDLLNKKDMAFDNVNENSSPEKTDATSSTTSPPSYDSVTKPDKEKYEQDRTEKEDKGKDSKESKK

Compound | IC50 [nM]
COc1cc(C2CC(C(C)(C)C)C2)c(F)cc1-n1c(=O)ccc2cc(S(=O)(=O)Nc3ccon3)ccc21 (atropisomer, axis not shown; (P)) [Example 3, (P)-1-(4-(3-(tert-butyl)cyclobutyl)-5-fluoro-2-methoxyphenyl)-N-(isoxazol-3-yl)-2-oxo-1,2-dihydroquinoline-6-sulfonamide] | 33
COc1cc(C2CC(F)(F)C2)c(F)cc1-n1c(=O)ccc2cc(S(=O)(=O)Nc3ccon3)ccc21 (atropisomer, axis not shown; (P)) [Example 4, (P)-1-(4-(3,3-difluorocyclobutyl)-5-fluoro-2-methoxyphenyl)-N-(isoxazol-3-yl)-2-oxo-1,2-dihydroquinoline-6-sulfonamide] | 15
COc1cc(C2CC(F)(C(F)(F)F)C2)c(F)cc1-n1c(=O)ccc2cc(S(=O)(=O)Nc3ccon3)ccc21 (atropisomer, axis not shown; (P)) [Example 5, (P)-1-(5-fluoro-4-(3-fluoro-3-(trifluoromethyl)cyclobutyl)-2-methoxyphenyl)-N-(isoxazol-3-yl)-2-oxo-1,2-dihydroquinoline-6-sulfonamide] | 2
COc1cc([C@H]2C[C@@](F)(C(F)(F)F)C2)c(F)cc1-n1c(=O)ccc2cc(S(=O)(=O)Nc3ccon3)ccc21 (atropisomer, axis not shown; (P)) [Example 8, trans-(P)-1-(5-fluoro-4-(3-fluoro-3-(trifluoromethyl)cyclobutyl)-2-methoxyphenyl)-N-(isoxazol-3-yl)-2-oxo-1,2-dihydroquinoline-6-sulfonamide] | 5
COc1cc([C@H]2C[C@](F)(C(F)(F)F)C2)c(F)cc1-n1c(=O)ccc2cc(S(=O)(=O)Nc3ccon3)ccc21 (atropisomer, axis not shown; (P)) [Example 9, cis-(P)-1-(5-fluoro-4-(3-fluoro-3-(trifluoromethyl)cyclobutyl)-2-methoxyphenyl)-N-(isoxazol-3-yl)-2-oxo-1,2-dihydroquinoline-6-sulfonamide] | 2
COc1cc([C@H]2C[C@](F)(C(F)(F)F)C2)c(Cl)cc1-n1c(=O)ccc2cc(S(=O)(=O)Nc3ccon3)ccc21 (atropisomer, axis not shown; (P)) [Example 10, cis-(P)-1-(5-chloro-4-(3-fluoro-3-(trifluoromethyl)cyclobutyl)-2-methoxyphenyl)-N-(isoxazol-3-yl)-2-oxo-1,2-dihydroquinoline-6-sulfonamide] | 8
COc1cc([C@H]2C[C@@](F)(C(F)(F)F)C2)c(Cl)cc1-n1c(=O)ccc2cc(S(=O)(=O)Nc3ccon3)ccc21 (atropisomer, axis not shown; (P)) [Example 11, trans-(P)-1-(5-chloro-4-(3-fluoro-3-(trifluoromethyl)cyclobutyl)-2-methoxyphenyl)-N-(isoxazol-3-yl)-2-oxo-1,2-dihydroquinoline-6-sulfonamide] | 2
COc1cc(C2CCC2)c(F)cc1-n1c(=O)ccc2cc(S(=O)(=O)Nc3ccon3)ccc21 (atropisomer, axis not shown; (P)) [Example 14, (P)-1-(4-cyclobutyl-5-fluoro-2-methoxyphenyl)-N-(isoxazol-3-yl)-2-oxo-1,2-dihydroquinoline-6-sulfonamide] | 16
COc1cc([C@H]2C[C@@H](C(F)(F)F)C2)c(Cl)cc1-n1c(=O)ccc2cc(S(=O)(=O)Nc3ncccn3)ccc21 (atropisomer, axis not shown; (P)) [Example 16, cis-(P)-1-(5-chloro-2-methoxy-4-(3-(trifluoromethyl)cyclobutyl)phenyl)-2-oxo-N-(pyrimidin-2-yl)-1,2-dihydroquinoline-6-sulfonamide] | 18
COc1cc([C@H]2C[C@H](C(F)(F)F)C2)c(Cl)cc1-n1c(=O)ccc2cc(S(=O)(=O)Nc3ncccn3)ccc21 (atropisomer, axis not shown; (P)) [Example 17, trans-(P)-1-(5-chloro-2-methoxy-4-(3-(trifluoromethyl)cyclobutyl)phenyl)-2-oxo-N-(pyrimidin-2-yl)-1,2-dihydroquinoline-6-sulfonamide] | 15
COc1cc(C2CCC2)c(Cl)cc1-n1c(=O)ccc2cc(S(=O)(=O)Nc3ncccn3)ccc21 (atropisomer, axis not shown; (P)) [Example 18, (P)-1-(5-chloro-4-cyclobutyl-2-methoxyphenyl)-2-oxo-N-(pyrimidin-2-yl)-1,2-dihydroquinoline-6-sulfonamide] | 22
COc1cc([C@H]2C[C@H](C(F)(F)F)C2)c(Cl)cc1-n1c(=O)ccc2cc(S(=O)(=O)Nc3cccnn3)ccc21 (atropisomer, axis not shown; (P)) [Example 19, trans-(P)-1-(5-chloro-2-methoxy-4-(3-(trifluoromethyl)cyclobutyl)phenyl)-2-oxo-N-(pyridazin-3-yl)-1,2-dihydroquinoline-6-sulfonamide] | 15
COc1cc([C@H]2C[C@H](C(F)(F)F)C2)c(C)cc1-n1c(=O)ccc2cc(S(=O)(=O)Nc3ccon3)ccc21 (atropisomer, axis not shown; (P)) [Example 20, trans-(P)—N-(isoxazol-3-yl)-1-(2-methoxy-5-methyl-4-(3-(trifluoromethyl)cyclobutyl)phenyl)-2-oxo-1,2-dihydroquinoline-6-sulfonamide] | 12
COc1cc(C2CCC2)c(Cl)cc1-n1c(=O)ccc2cc(S(=O)(=O)Nc3ccon3)ccc21 (atropisomer, axis not shown; (P)) [Example 21, (P)-1-(5-chloro-4-cyclobutyl-2-methoxyphenyl)-N-(isoxazol-3-yl)-2-oxo-1,2-dihydroquinoline-6-sulfonamide] | 12
COc1cc(C2CCC2)c(C)cc1-n1c(=O)ccc2cc(S(=O)(=O)Nc3ccon3)ccc21 (atropisomer, axis not shown; (P)) [Example 22, (P)-1-(4-cyclobutyl-2-methoxy-5-methylphenyl)-N-(isoxazol-3-yl)-2-oxo-1,2-dihydroquinoline-6-sulfonamide] | 50
COc1cc(C2CCC2)c(F)cc1-n1c(=O)ccc2cc(S(=O)(=O)Nc3cccnn3)ccc21 (atropisomer, axis not shown; (P)) [Example 23, (P)-1-(4-cyclobutyl-5-fluoro-2-methoxyphenyl)-2-oxo-N-(pyridazin-3-yl)-1,2-dihydroquinoline-6-sulfonamide] | 102
COc1cc(C2CCC2)c(F)cc1-n1c(=O)ccc2cc(S(=O)(=O)Nc3ncco3)ccc21 (atropisomer, axis not shown; (P)) [Example 24, (P)-1-(4-cyclobutyl-5-fluoro-2-methoxyphenyl)-N-(oxazol-2-yl)-2-oxo-1,2-dihydroquinoline-6-sulfonamide] | 13
COc1cc(C2CCC2)ccc1-n1c(=O)ccc2cc(S(=O)(=O)Nc3ccon3)ccc21 (atropisomer, axis not shown; (P)) [Example 25, (P)-1-(4-cyclobutyl-2-methoxyphenyl)-N-(isoxazol-3-yl)-2-oxo-1,2-dihydroquinoline-6-sulfonamide] | 37
COc1cc(C2CCC2)ccc1-n1c(=O)ccc2cc(S(=O)(=O)Nc3ncccn3)ccc21 (atropisomer, axis not shown; (P)) [Example 26, (P)-1-(4-cyclobutyl-2-methoxyphenyl)-2-oxo-N-(pyrimidin-2-yl)-1,2-dihydroquinoline-6-sulfonamide] | 80
COc1cc(C2CCC2)c(C)cc1-n1c(=O)ccc2cc(S(=O)(=O)Nc3ncccn3)ccc21 (atropisomer, axis not shown; (P)) [Example 27, (P)-1-(4-Cyclobutyl-2-Methoxy-5-Methylphenyl)-2-Oxo-N-(Pyrimidin-2-Yl)-1,2-Dihydro Quinoline-6-Sulfonamide] | 104
COc1cc(C2CCC2)c(F)cc1-n1c(=O)ccc2cc(S(=O)(=O)Nc3ncccn3)ccc21 (atropisomer, axis not shown; (P)) [Example 28, (P)-1-(4-cyclobutyl-5-fluoro-2-methoxyphenyl)-2-oxo-N-(pyrimidin-2-yl)-1,2-dihydroquinoline-6-sulfonamide] | 54
COc1cc(C2CCC2)ccc1-n1c(=O)ccc2cc(S(=O)(=O)Nc3ncco3)ccc21 (atropisomer, axis not shown; (P)) [Example 29, (P)-1-(4-cyclobutyl-2-methoxyphenyl)-N-(oxazol-2-yl)-2-oxo-1,2-dihydroquinoline-6-sulfonamide] | 37
COc1cc(C2CCC2)c(C)cc1-n1c(=O)ccc2cc(S(=O)(=O)Nc3cccnn3)ccc21 (atropisomer, axis not shown; (P)) [Example 30, (P)-1-(4-cyclobutyl-2-methoxy-5-methylphenyl)-2-oxo-N-(pyridazin-3-yl)-1,2-dihydroquinoline-6-sulfonamide] | 137
